Measurements as given in ChEMBL document CHEMBL1201862, “PubChem BioAssay data set” (2004).
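Interpolation was linear, between the two tested concentrations surrounding the appropriate level; five concentrations were tested over 48 hours in 96-well plates. GI50 marks 50% less growth.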 The source made the active and inactive calls. Cut-off read from the data, not from the text of the source: active = GI50 up to about 1.1 µM and inactive = higher.

What was measured:
Assay in all cases: NCI anticancer screen, dose series, 48 h
786-0 = tested on: 786-0
A498 = tested on: A498
A549 = tested on: A549
BT-549 = tested on: BT-549
CAKI-1 = tested on: CAKI-1
CCRF-CEM = tested on: CCRF-CEM
COLO 205 = tested on: COLO 205
DU-145 = tested on: DU-145
EKVX = tested on: EKVX
HCC 2998 = tested on: HCC 2998
HCT-116 = tested on: HCT-116
HCT-15 = tested on: HCT-15
HL-60 = tested on: HL-60
HOP-62 = tested on: HOP-62
HOP-92 = tested on: HOP-92
HT-29 = tested on: HT-29
Hs-578T = tested on: Hs-578T
IGROV-1 = tested on: IGROV-1
K562 = tested on: K562
KM12 = tested on: KM12
LOX IMVI = tested on: LOX IMVI
M14 = tested on: M14
MCF7 = tested on: MCF7
MDA-MB-231 = tested on: MDA-MB-231
MDA-MB-435 = tested on: MDA-MB-435
MDA-N = tested on: MDA-N
MOLT-4 = tested on: MOLT-4
Malme-3M = tested on: Malme-3M
NCI-H226 = tested on: NCI-H226
NCI-H23 = tested on: NCI-H23
NCI-H460 = tested on: NCI-H460
NCI-H522 = tested on: NCI-H522
NCI/ADR-RES = tested on: NCI/ADR-RES
OVCAR-3 = tested on: OVCAR-3
OVCAR-4 = tested on: OVCAR-4
OVCAR-5 = tested on: OVCAR-5
OVCAR-8 = tested on: OVCAR-8
PC-3 = tested on: PC-3
RPMI-8226 = tested on: RPMI-8226
RXF 393 = tested on: RXF 393
SF-268 = tested on: SF-268
SF-295 = tested on: SF-295
SK-MEL-28 = tested on: SK-MEL-28
SK-MEL-2 = tested on: SK-MEL-2
SK-MEL-5 = tested on: SK-MEL-5
SK-OV-3 = tested on: SK-OV-3
SN12C = tested on: SN12C
SNB-19 = tested on: SNB-19
SNB-75 = tested on: SNB-75
SR = tested on: SR
SW-620 = tested on: SW-620
T47D = tested on: T47D
U-251 = tested on: U-251
UACC-257 = tested on: UACC-257
UACC-62 = tested on: UACC-62
UO-31 = tested on: UO-31
ACHN = tested on: ACHN
SF-539 = tested on: SF-539
TK-10 = tested on: TK-10

## COC1C=C(NCC2(CO)CCC2)N=C(N)N1 (centres undefined)
786-0
  GI50: > 100 µM (inactive)
A498
  GI50: 95.1 µM (inactive)
A549
  GI50: > 100 µM (inactive)
BT-549
  GI50: > 100 µM (inactive)
CAKI-1
  GI50: > 100 µM (inactive)
CCRF-CEM
  GI50: > 100 µM (inactive)
COLO 205
  GI50: > 100 µM (inactive)
DU-145
  GI50: > 100 µM (inactive)
EKVX
  GI50: > 100 µM (inactive)
HCC 2998
  GI50: > 100 µM (inactive)
HCT-116
  GI50: > 100 µM (inactive)
HCT-15
  GI50: > 100 µM
HL-60
  GI50: > 100 µM (inactive)
HOP-62
  GI50: > 100 µM (inactive)
HOP-92
  GI50: > 100 µM (inactive)
HT-29
  GI50: > 100 µM (inactive)
Hs-578T
  GI50: > 100 µM (inactive)
IGROV-1
  GI50: > 100 µM (inactive)
K562
  GI50: > 100 µM (inactive)
KM12
  GI50: > 100 µM (inactive)
LOX IMVI
  GI50: > 100 µM (inactive)
M14
  GI50: > 100 µM (inactive)
MCF7
  GI50: 95.1 µM (inactive)
MDA-MB-231
  GI50: 56.6 µM (inactive)
MDA-MB-435
  GI50: > 100 µM (inactive)
MDA-N
  GI50: > 100 µM (inactive)
MOLT-4
  GI50: > 100 µM (inactive)
Malme-3M
  GI50: > 100 µM (inactive)
NCI-H226
  GI50: > 100 µM (inactive)
NCI-H23
  GI50: 24.8 µM (inactive)
NCI-H460
  GI50: > 100 µM (inactive)
NCI-H522
  GI50: > 100 µM (inactive)
NCI/ADR-RES
  GI50: > 100 µM (inactive)
OVCAR-3
  GI50: > 100 µM (inactive)
OVCAR-4
  GI50: > 100 µM (inactive)
OVCAR-5
  GI50: > 100 µM (inactive)
OVCAR-8
  GI50: > 100 µM (inactive)
PC-3
  GI50: > 100 µM (inactive)
RPMI-8226
  GI50: > 100 µM (inactive)
RXF 393
  GI50: > 100 µM (inactive)
SF-268
  GI50: > 100 µM (inactive)
SF-295
  GI50: > 100 µM (inactive)
SK-MEL-28
  GI50: > 100 µM (inactive)
SK-MEL-2
  GI50: > 100 µM (inactive)
SK-MEL-5
  GI50: > 100 µM (inactive)
SK-OV-3
  GI50: > 100 µM (inactive)
SN12C
  GI50: > 100 µM (inactive)
SNB-19
  GI50: > 100 µM (inactive)
SNB-75
  GI50: > 100 µM (inactive)
SR
  GI50: > 100 µM (inactive)
SW-620
  GI50: > 100 µM (inactive)
T47D
  GI50: > 100 µM (inactive)
U-251
  GI50: > 100 µM (inactive)
UACC-257
  GI50: > 100 µM (inactive)
UACC-62
  GI50: > 100 µM (inactive)
UO-31
  GI50: > 100 µM (inactive)

## CCN(CC)N1C(=O)[N-][N+](CC)(CC)C1=O
786-0
  GI50: > 100 µM (inactive)
A498
  GI50: > 100 µM (inactive)
A549
  GI50: > 100 µM (inactive)
ACHN
  GI50: > 100 µM (inactive)
BT-549
  GI50: > 100 µM (inactive)
CAKI-1
  GI50: > 100 µM (inactive)
CCRF-CEM
  GI50: > 100 µM (inactive)
COLO 205
  GI50: 71.1 µM (inactive)
DU-145
  GI50: > 100 µM (inactive)
EKVX
  GI50: > 100 µM (inactive)
HCC 2998
  GI50: > 100 µM (inactive)
HCT-116
  GI50: > 100 µM (inactive)
HCT-15
  GI50: > 100 µM
HL-60
  GI50: > 100 µM (inactive)
HOP-62
  GI50: > 100 µM (inactive)
HOP-92
  GI50: > 100 µM (inactive)
HT-29
  GI50: > 100 µM (inactive)
Hs-578T
  GI50: > 100 µM (inactive)
IGROV-1
  GI50: > 100 µM (inactive)
KM12
  GI50: > 100 µM (inactive)
LOX IMVI
  GI50: > 100 µM (inactive)
M14
  GI50: > 100 µM (inactive)
MCF7
  GI50: > 100 µM (inactive)
MDA-MB-231
  GI50: > 100 µM (inactive)
MDA-MB-435
  GI50: > 100 µM (inactive)
MDA-N
  GI50: > 100 µM (inactive)
MOLT-4
  GI50: > 100 µM (inactive)
Malme-3M
  GI50: > 100 µM (inactive)
NCI-H226
  GI50: > 100 µM (inactive)
NCI-H23
  GI50: > 100 µM (inactive)
NCI-H460
  GI50: > 100 µM (inactive)
NCI-H522
  GI50: > 100 µM (inactive)
NCI/ADR-RES
  GI50: > 100 µM (inactive)
OVCAR-3
  GI50: > 100 µM (inactive)
OVCAR-4
  GI50: > 100 µM (inactive)
OVCAR-5
  GI50: > 100 µM (inactive)
OVCAR-8
  GI50: > 100 µM (inactive)
PC-3
  GI50: > 100 µM (inactive)
RPMI-8226
  GI50: > 100 µM (inactive)
SF-268
  GI50: > 100 µM (inactive)
SF-295
  GI50: > 100 µM (inactive)
SF-539
  GI50: > 100 µM (inactive)
SK-MEL-28
  GI50: > 100 µM (inactive)
SK-MEL-2
  GI50: > 100 µM (inactive)
SK-MEL-5
  GI50: > 100 µM (inactive)
SK-OV-3
  GI50: > 100 µM (inactive)
SN12C
  GI50: > 100 µM (inactive)
SNB-19
  GI50: > 100 µM (inactive)
SNB-75
  GI50: > 100 µM (inactive)
SR
  GI50: > 100 µM (inactive)
SW-620
  GI50: > 100 µM (inactive)
T47D
  GI50: > 100 µM (inactive)
TK-10
  GI50: > 100 µM (inactive)
U-251
  GI50: > 100 µM (inactive)
UACC-62
  GI50: > 100 µM (inactive)
UO-31
  GI50: > 100 µM (inactive)

## COC(=O)C1(Cc2ccc3c(c2)CCC3)Cc2cc3c(cc2C1)CCC3
786-0
  GI50: 51.4 µM (inactive)
A498
  GI50: 35.2 µM (inactive)
A549
  GI50: 28.6 µM (inactive)
ACHN
  GI50: 38.3 µM (inactive)
BT-549
  GI50: 42.7 µM (inactive)
CCRF-CEM
  GI50: 19.3 µM (inactive)
COLO 205
  GI50: 38.5 µM (inactive)
DU-145
  GI50: 71.4 µM (inactive)
EKVX
  GI50: 45.2 µM (inactive)
HCC 2998
  GI50: 27.2 µM (inactive)
HCT-116
  GI50: 35.1 µM (inactive)
HCT-15
  GI50: 31.6 µM
HL-60
  GI50: 36.9 µM (inactive)
HOP-62
  GI50: > 100 µM (inactive)
HOP-92
  GI50: 25.8 µM (inactive)
HT-29
  GI50: 22.5 µM (inactive)
Hs-578T
  GI50: 65.6 µM (inactive)
IGROV-1
  GI50: 80 µM (inactive)
K562
  GI50: 30.5 µM (inactive)
KM12
  GI50: 33.2 µM (inactive)
LOX IMVI
  GI50: 18.7 µM (inactive)
M14
  GI50: 35.2 µM (inactive)
MCF7
  GI50: 22.5 µM (inactive)
MDA-MB-231
  GI50: 22.9 µM (inactive)
MDA-MB-435
  GI50: 39 µM (inactive)
MDA-N
  GI50: 40.6 µM (inactive)
MOLT-4
  GI50: 29.8 µM (inactive)
NCI-H226
  GI50: 33.7 µM (inactive)
NCI-H23
  GI50: 27.3 µM (inactive)
NCI-H460
  GI50: 35 µM (inactive)
NCI-H522
  GI50: 22.1 µM (inactive)
NCI/ADR-RES
  GI50: 59.8 µM (inactive)
OVCAR-3
  GI50: 45.6 µM (inactive)
OVCAR-4
  GI50: 32.2 µM (inactive)
OVCAR-5
  GI50: 55.6 µM (inactive)
OVCAR-8
  GI50: 54.2 µM (inactive)
PC-3
  GI50: 46 µM (inactive)
RPMI-8226
  GI50: 53 µM (inactive)
RXF 393
  GI50: 23.9 µM (inactive)
SF-268
  GI50: 30.3 µM (inactive)
SF-295
  GI50: 33.3 µM (inactive)
SF-539
  GI50: > 100 µM (inactive)
SK-MEL-28
  GI50: 60.1 µM (inactive)
SK-MEL-2
  GI50: 19.9 µM (inactive)
SK-MEL-5
  GI50: 27 µM (inactive)
SK-OV-3
  GI50: > 100 µM (inactive)
SN12C
  GI50: 50.5 µM (inactive)
SNB-19
  GI50: 68.1 µM (inactive)
SNB-75
  GI50: 46.6 µM (inactive)
SR
  GI50: 78.7 µM (inactive)
SW-620
  GI50: 75.7 µM (inactive)
T47D
  GI50: 21.4 µM (inactive)
TK-10
  GI50: > 100 µM (inactive)
U-251
  GI50: 37.4 µM (inactive)
UACC-257
  GI50: 19.5 µM (inactive)
UACC-62
  GI50: 71.3 µM (inactive)
UO-31
  GI50: 49.9 µM (inactive)
